Assay in all cases: DTP human tumour cell line panel, 48 h
For assay [1], the system named is SF-268 CNS.
Assay [2] has as its system NCI/ADR-RES ovarian.
The subject of assay [3] is MDA-MB-435.
For assay [4], the system named is SK-MEL-2 melanoma.
Assay [5] concerns NCI-H522 lung.
The test system of assay [6] is SF-539 CNS.
The subject of assay [7] is SNB-19 CNS.
For assay [8], the system named is NCI-H226 lung.
In assay [9] the test system is CAKI-1 renal.
Assay [10] concerns HT29 colon.

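48-hour exposure; five concentrations; linearly interpolated endpoints. At the GI50, growth is halved. TGI denotes the concentration required for complete inhibition of growth.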

On to `COC(=O)C1=C(C)NC(C)=C(C(=O)OC)C1/C=C(Cl)/C=C/c1ccccc1`, for which the GI50 in [1] is 20.9 µM; in [2] it was 18.4 µM; in assay [3], 18.8 µM; in assay [4], 13.4 µM; in assay [5], 21.7 µM; in assay [6], 21 µM. Further, the GI50 was 37.7 µM in assay [7], 24.8 µM in assay [8], 20.7 µM in [9] and 18.9 µM in [10]. Further, the TGI in assay [1] was found to be 58.8 µM; in assay [2], 44.3 µM; in assay [3], 37.1 µM; in [4], 50.4 µM; in assay [5] it was 72 µM; in assay [6] it was 41.2 µM. In addition, the TGI in assay [7] is greater than 100 µM; in [8], 73.2 µM; in assay [9], 49.3 µM; in assay [10] it was 44.9 µM.
For `Nc1nc(-c2ccccc2)nc2c1[n+]([O-])c1ccccc1[n+]2[O-]`, the TGI in [1], in assay [2], in assay [3], in [4], in assay [5] and in [6] was greater than 100 µM throughout. In addition, the TGI in assay [7], in assay [8], in assay [9] and in [10] was greater than 100 µM in each case.
For `CCN(C(=O)c1cc(F)ccc1Oc1cncnc1N1CC2(CCN(CC3CCC(NS(=O)(=O)CC)CC3)CC2)C1)C(C)C` (stereo not drawn), the GI50 in assay [1], in assay [2], in [3], in assay [4], in assay [5] and in assay [6] was greater than 100 µM throughout. The GI50 in assay [7], in assay [8], in assay [9] and in assay [10] was greater than 100 µM throughout. Further, the TGI in assay [1], in assay [2], in assay [3], in assay [4], in assay [5] and in [6] was greater than 100 µM throughout. The TGI in [7], in assay [8], in [9] and in assay [10] was greater than 100 µM throughout.
With `O=C1c2ccccc2C(=O)c2c1ccc(C1C(=O)c3ccccc3C1=O)c2-c1c(C2C(=O)c3ccccc3C2=O)ccc2c1C(=O)c1ccccc1C2=O`, the TGI in assay [1], in [2], in assay [3], in assay [4], in assay [5] and in assay [6] was greater than 100 µM throughout. Besides, the TGI in [7], in [8], in [9] and in [10] was greater than 100 µM throughout.
As for `Cc1cc(Cl)ccc1NC(=O)c1cc2ccccc2cc1O`, the GI50 in [1] is 1.91 µM; in [2], 0.433 µM; in assay [3], 0.555 µM; in assay [4], 0.432 µM; in [5], 0.304 µM; in assay [6] it was 0.783 µM. In addition, the GI50 in [7] is 0.736 µM; in assay [8], 0.93 µM; in assay [9], 0.381 µM; in assay [10], 12.3 µM. Further, the TGI in assay [1] is greater than 100 µM; in assay [3] it was greater than 100 µM; in assay [5] it was greater than 29.4 µM; in assay [6], greater than 100 µM; in assay [7], greater than 100 µM; in assay [8], greater than 100 µM. In addition, the TGI in assay [9] and in [10] was greater than 100 µM throughout.
Take `C=C1CC/C=C(\C)C(=O)C[C@@H]2[C@@H]1CC2(C)C`: the TGI is 52.7 µM in [1]; 46.6 µM in assay [2]; 5.18 µM in assay [3]; 43.8 µM in [4]; 2.96 µM in assay [5]; 8.46 µM in assay [6]. For the same compound, the TGI is 25.7 µM in assay [7], 42.8 µM in assay [8], 3.01 µM in [9] and greater than 32.7 µM in [10].
As for `COc1ccc(/C(C#N)=C/c2ccc(OC)c(OC)c2)cc1`, the TGI in assay [1], in [2], in assay [3], in assay [4], in [5] and in assay [6] was greater than 100 µM in each case. Besides, the TGI in assay [7], in assay [8], in assay [9] and in [10] was greater than 100 µM throughout.
Take `COc1cc(Nc2ccnc(NCCCNc3ccnc4cc(Cl)ccc34)n2)cc(OC)c1`: the GI50 in [1] is 1.8 µM; in assay [2] it was 2.9 µM; in assay [3], 1.51 µM; in [4], 1.91 µM; in [5], 1.8 µM; in [6] it was 1.58 µM. In addition, the GI50 is 2.32 µM in assay [7], 2.5 µM in [8], 1.62 µM in [9] and 1.33 µM in [10]. Further, the TGI in assay [1] amounted to 3.88 µM; in [2], 12.5 µM; in [3], 2.88 µM; in assay [4] it was 3.54 µM; in assay [5], 3.78 µM; in assay [6], 3.09 µM. Besides, the TGI in assay [7] is 8 µM; in [8], 9.16 µM; in assay [9], 3.26 µM; in [10] it was 3.62 µM.
For the compound `O=C(/C=C/c1cc([N+](=O)[O-])ccc1Cl)c1ccccc1`, the GI50 in [1] was 16.9 µM; in [2] it was 24.4 µM; in assay [3], 14.2 µM; in assay [4], 24.6 µM; in [5], 15 µM; in assay [6], 16.6 µM. For the same compound, the GI50 in [7] is 13.3 µM; in assay [8], 15.4 µM; in assay [9], 5.32 µM; in assay [10], 3.36 µM. In addition, the TGI in assay [1] was determined as 43.6 µM; in assay [2], 91.7 µM; in assay [3] it was 35.5 µM; in [4] it was 72.3 µM; in assay [5], 36.8 µM; in [6], 32.7 µM. The TGI in [7] turned out to be 28.3 µM; in assay [8], 59.3 µM; in [9], 31.3 µM; in [10] it was 19.4 µM.

These data come from PubChem BioAssay (NCI).
